From patent US8324265B2, “Heterocyclic compounds having type I 11β hydroxysteroid dehydrogenase inhibitory activity” (Shionogi & Co., Ltd., priority 2005, dated 2012) come the findings set out here.

Data set [1] concerns the target recombinant human 11β-HSD1 (Homo sapiens, UniProt P28845). Description: Enzyme activity assay on human 11β-HSD1 (HTRF). The format is biochemical. The note with it: recombinant human 11β-HSD1, 5μM cortisone as substrate, 2 hours at 37° C.; read-out: humanIC50. The protocol: Evaluation of 11β-HSD1 Inhibitors (Enzyme Activity Assay on Human 11β-HSD1)
Enzymatic activity for human 11β-HSD1 was determined in a 10 μl final volume of assay mixture containing 50 mM sodium phosphate buffer (pH 7.6), 1 mg/ml bovine serum albumin, 0.42 mg/ml NADPH, 1.26 mg/ml glucose-6-phosphate, glucose-6-phosphate dehydrogenase, test compound, recombinant human 11β-HSD1, and 5μM cortisone as substrate. The reaction was started with the addition of cortisone. After incubation for 2 hours at 37° C., 5μl of europium cryptate-labelled anti-cortisol antibody and 5μl of XL665-labeled cortisol were added. After further incubation for 2 hours at room temperature, the homogeneous time-resolved fluorescence (HTRF) signal was measured. The cortisol production was quantitated by a standard curve generated with several known concentrations of cortisol in each assay.
The amount of cortisol production without compounds was served as control, and the percent inhibition by test compound at each concentration was calculated. The IC50 value of the compound for 11β-HSD1 was obtained using the inhibition curve generated by plotting the percent inhibition versus the concentration of test compound.

Data set [2] deals with recombinant mouse 11β-HSD1 (Mus musculus, UniProt P50172). As to the kind of experiment: Enzyme activity assay on mouse 11β-HSD1 (HTRF). It is filed as biochemical. The note with it: recombinant mouse 11β-HSD1, 2μM 11-dehydrocorticosterone as substrate, 2 hours at 37° C.; read-out: mouseIC50. The protocol: Evaluation of 11β-HSD1 Inhibitors (Enzyme Activity Assay on Mouse 11β-HSD1)
recombinant mouse 11β-HSD1, sequence (P50172 whole entry): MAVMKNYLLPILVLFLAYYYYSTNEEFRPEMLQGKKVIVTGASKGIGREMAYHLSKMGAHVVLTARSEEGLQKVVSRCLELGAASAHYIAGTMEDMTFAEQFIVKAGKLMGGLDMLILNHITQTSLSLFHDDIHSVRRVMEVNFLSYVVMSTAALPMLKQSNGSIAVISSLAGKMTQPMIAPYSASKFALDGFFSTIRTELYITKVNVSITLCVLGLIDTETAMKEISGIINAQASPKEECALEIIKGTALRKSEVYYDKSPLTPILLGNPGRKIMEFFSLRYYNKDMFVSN
Enzymatic activity for mouse 11β-HSD1 activity was determined in a 10μl final volume of assay mixture containing 50 mM sodium phosphate buffer (pH 7.6), 1 mg/ml bovine serum albumin, 0.42 mg/ml NADPH, 1.26 mg/ml glucose-6-phosphate, glucose-6-phosphate dehydrogenase, test compound, recombinant mouse 11β-HSD1, and 2μM 11-dehydrocorticosterone as substrate. The reaction was started with the addition of 11-dehydrocorticosterone. After incubation for 2 hours at 37° C., 5μl of europium cryptate-labelled anti-cortisol antibody and 5μl of XL665-labeled cortisol were added. After further incubation for 2 hours at room temperature, the HTRF signal was measured. The corticosterone production was quantitated by a standard curve generated with several known concentrations of corticosterone in each assay.
The amount of corticosterone production without compounds was served as control, and the percent inhibition by compound at each concentration was calculated. The IC50 value of the compound for 11β-HSD1 was obtained using the inhibition curve generated by plotting the percent inhibition versus the concentration of test compound.
On the technique in general: In TR-FRET formats the signal depends on donor and acceptor labels being close together.

For orientation: melting point means the temperature of the solid-liquid transition.

Each structure is given as a SMILES string. A value given as a limit tells only on which side of the number the result lay.

recombinant human 11β-HSD1, sequence (P28845 whole entry): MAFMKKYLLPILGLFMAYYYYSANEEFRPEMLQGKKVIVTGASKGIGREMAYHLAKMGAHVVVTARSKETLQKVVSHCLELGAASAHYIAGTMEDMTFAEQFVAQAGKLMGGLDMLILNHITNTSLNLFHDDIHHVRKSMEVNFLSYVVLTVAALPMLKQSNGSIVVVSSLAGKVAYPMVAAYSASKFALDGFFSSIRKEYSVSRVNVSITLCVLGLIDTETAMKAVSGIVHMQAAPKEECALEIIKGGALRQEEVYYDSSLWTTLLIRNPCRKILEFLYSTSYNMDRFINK

As for `Cn1ncc(C(=O)NC23CC4CC(CC(C4)C2)C3)c1Oc1ccccc1` [Compound A-3], the IC50 in data set [1] turned out to be 300 nM; in data set [2], 24100 nM.

As for `CCC(CC)COc1c(C(=O)NC2C3CC4CC(C3)CC2C4)cnn1C` (centres unmarked) [Compound A-65], the melting point was 89 to 90 °C.

On to `Cn1cc(C(=O)NC2C3CC4CC(C3)CC2C4)c(OCc2ccccc2)n1` (centres unmarked) [Compound A-5], for which the IC50 in data set [1] is 710 nM; in data set [2], greater than 30000 nM. `Cn1ncc(C(=O)NC2C3CC4CC(C3)CC2C4)c1OC1CCCCC1` (centres unmarked) [Compound A-6]: the IC50 in data set [1] is 8.3 nM; in data set [2], 940 nM.

For the compound `Cn1ncc(C(=O)NC2C3CC4CC(C3)CC2C4)c1OCCc1ccsc1` (centres unmarked) [Compound A-64], the melting point is 68 to 69 °C. Compound `Cn1ncc(C(=O)NC2C3CC4CC(C3)CC2C4)c1OCC1CCC1` (centres unmarked) [Compound A-63] gave a melting point of 84 to 85 °C. Turning to `Cn1ncc(C(=O)NC23CC4CC(CC(C4)C2)C3)c1OCc1ccccc1` [Compound A-1], the IC50 in data set [1] amounted to 190 nM; in data set [2], 5900 nM. `Cn1ncc(C(=O)NC23CC4CC(CC(C4)C2)C3)c1Sc1ccccc1` [Compound A-2]: the results for the IC50 in data set [1] and in data set [2] were 270 nM and 11000 nM, respectively.

With `Cn1ncc(C(=O)NC2C3CC4CC(C3)CC2C4)c1OCCc1ccccc1` (centres unmarked) [Compound A-7], the figures for the IC50 in data set [1] and in data set [2] were 18 nM and 710 nM, respectively. On to `Cn1ncc(C(=O)NC2C3CC4CC(C3)CC2C4)c1OCc1ccccc1` (centres unmarked) [Compound A-4], for which the results for the IC50 in data set [1] and in data set [2] were 37 nM and 1600 nM, respectively.
